Reference: US12252457B2, “Compositions and methods for reducing tactile dysfunction, anxiety, and social impairment” (President and Fellows of Harvard College, priority 2018, dated 2025)

Legend:
[1] = system: large diameter neurons cultured from DRGs of Mecp2 and Shank3 mutant mice; assay: Whole cell patch-clamp recordings of cultured DRG neurons; format: cell-based, mouse; details: 10 μM isoguvacine
Description: FIGS. 27A-27K are related to FIGS. 19A-19N. FIGS. 27A-27B: Representative traces from large diameter neurons cultured from DRGs of control (FIG. 27A) and Mecp2^STOP/y (FIG. 27B) mice during whole cell current clamp recordings, in which the minimal amount of current required to elicit an action potential in each neuron (rheobase, Rh), was determined in the absence or presence of 10 μm isoguvacine. FIG. 27C: Quantification of average Rh in large diameter neurons cultured from DRGs of control mice during a baseline period and then in presence of 10 μm isoguvacine. Repeated measures one-way ANOVA, post-hoc Tukey's test, *, p<0.05. FIG. 27D: Quantification of average Rh in large diameter neurons cultured from DRGs of control mice during a baseline period, followed application of 10 μm isoguvacine, then washout period. […] FIG. 27E: Quantification of average Rh in large diameter neurons cultured from DRGs of control and Mecp2^STOP/y mice during a baseline period and then in presence of 10 μm isoguvacine. […] FIG. 27F: Quantification of average Rh in large diameter neurons cultured from DRGs of control and Shank3B^+/− mice during a baseline period and then in presence of 10 μm isoguvacine. […] FIG. 27G: Quantification of total Ih density at each hyperpolarizing voltage step for large diameter neurons cultured from DRGs of control, Mecp2^STOP/y and Shank3B^+/− mutant mice. […]

[2] = system: low-threshold mechanoreceptor neurons (LTMRs); assay: In vivo multiunit electrode recordings in the L4 DRG; design: species or system mouse
Text: FIGS. 20A-20O show isoguvacine attenuates tactile sensitivity through reduced excitability of peripheral, low-threshold mechanosensory neurons. FIG. 20A: Diagram for in vivo dorsal root ganglion (DRG) multi-unit electrode recordings, showing tetrode placement into the left L4 ganglia. FIG. 20B: Activity traces of two putative neurons (units) in response to a brush stimulus. FIG. 20C: Activity traces of two putative neurons (units) in response to a light air puff stimulus (1 PSI). FIGS. 20D-20G: Example unit identified during the spike sorting process. Average waveform at each electrode site (FIG. 20D, FIG. 20E), and inter-spike interval (FIG. 20F, FIG. 20G). FIG. 20H: Representative activity raster plots for multiple putative LTMRs in multiple mice over the duration of a recording experiment in controls and Advillin^Cre; Gabrb3^f/f mice. Mice received a subcutaneous injection of either saline or isoguvacine (2 mg/kg) during the experiment, and activity of light-touch responsive units in response to a light brush stimulus was assessed over a 90-minute period. FIG. 20I: Average firing frequency of LTMRs over the duration of each recording experiment, following subcutaneous injection of either saline or isoguvacine (2 mg/kg). Repeated measures, two-way ANOVA with post-hoc Dunnett's test, *p<0.05. FIG. 20J: Representative activity raster plots for putative LTMRs in multiple mice over the duration of recordings in controls and Shank3B^+/− mice. Mice received a subcutaneous injection of either saline or isoguvacine (2 mg/kg) during the experiment, and activity of light-touch responsive units was assessed over a 90-minute period. FIG. 20K: Average baseline spike rate of LTMRs in response to brush or air puff stimulus, in control and Shank3B^+/− mice. Student's t-test, *p<0.05. FIG. 20L: Average firing frequency of LTMRs over the duration of each recording experiment, following subcutaneous injection of either saline or isoguvacine (2 mg/kg). Repeated measures, two-way ANOVA with post-hoc Dunnett's test, *p<0.05. […] Two-way ANOVA with post-hoc Sidak's test, *, p<0.05. FIG. 20N: Response to a light air puff stimulus alone in mice following i.p. administration of either saline or 2 mg/kg isoguvacine treatment. Responses are expressed as percent of startle response to a 125 dB noise. Two-way ANOVA with post-hoc Sidak's test, *, p<0.05. FIG. 20O: Magnitude of startle response to a 125 dB noise in mice following i.p. administration of either saline or 2 mg/kg isoguvacine treatment. Responses are expressed as percent of startle response to a 125 dB noise. Two-way ANOVA with post-hoc Sidak's test, *, p<0.05.
To test the hypothesis that isoguvacine exerts its effects by acting directly on primary somatosensory neurons, electrophysiological recordings were performed both in vitro and in vivo. DRG cultures from Mecp2 and Shank3 mutant and control littermates were first produced to assess excitability of these neurons in vitro using whole cell patch-clamp recordings. […] It was next asked whether administration of isoguvacine would reduce mechanosensory neuron sensitivity in vivo by performing multiunit electrode recordings in the L4 DRG of urethane- and isoflurane-anesthetized mice (FIG. 20A). […] Once LTMR units were identified, animals were administered a subcutaneous injection of either saline vehicle or isoguvacine (2 mg/kg) and then sensitivity and firing frequency in response to tactile stimuli were monitored over a 90-minute period for each identified unit. […]

## O=C(O)C1=CCNCC1 [Isoguvacine, isoguvacine]
[1]; large diameter DRG neurons
  Ih: without affecting Ih
[1]; neurons from Mecp2 and Shank3 mutant mice
  hyperexcitability phenotype (rheobase) of large diameter DRG neurons: reduced the hyperexcitability phenotype
[2]; 2 mg/kg subcutaneous
  proprioceptor sensitivity and firing: unaffected
  response thresholds to light touch stimuli and spiking of glabrous- and hairy-skin innervating Aβ LTMRs: increased response thresholds to light touch stimuli and reduced spiking
[2]; Advillin^Cre, Gabrb3^f/f mice, 2 mg/kg subcutaneous
  tactile stimulus-evoked LTMR sensitivity: no changes in tactile stimulus-evoked LTMR sensitivity
[2]; Shank3B and control littermates, 2 mg/kg subcutaneous
  LTMR firing: attenuated firing
[2]; control mice, sixty minutes after 2 mg/kg subcutaneous
  tactile stimulus-evoked (brush or air puff) responsivity of LTMRs: significantly decreased
